Reference: patent publication US8703796B2, “3H-imidazo [4, 5-B] pyridine-6-carboxamides as anti-inflammatory agents” (Boehringer Ingelheim International GmbH, priority 2008, dated 2014)
Structures can show the parent of a compound that is named as a salt.

What follows are compounds tested against T1, recombinant human mPGES-1 (Homo sapiens, UniProt O14684) (assay: mPGES-1 inhibition, HTRF detection of PGE2).
T1 construct: made in house; host or cells: Rosetta E. coli (microsomal/membrane fraction)
T1 sequence (O14684 1-152): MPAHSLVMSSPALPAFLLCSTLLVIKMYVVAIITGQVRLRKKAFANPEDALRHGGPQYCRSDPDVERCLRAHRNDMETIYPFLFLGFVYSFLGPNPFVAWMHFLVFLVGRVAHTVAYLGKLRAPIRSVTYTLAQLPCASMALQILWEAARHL
Type: biochemical
Procedure: Microsomes from Rosetta E. coli bacteria expressing recombinant human mPGES-1 is dissolved in 0.1 M KPi pH 7.4 buffer containing 2.5 mM GSH. 50 μl of the enzyme is subsequently dispensed in a 384-well plate. 0.5 μl of the inhibitor dissolved in DMSO at is thereafter added to each well and incubated for 25 minutes at room temperature. Subsequently, 2 μl of PGH2 dissolved in an appropriate solvent is added to each well and after one minute the acidified stop solution containing FeCl2 is added. 4 μl of the total volume is transferred to a separate plate and diluted 750-fold in two separate steps before HTRF detection of PGE2.
The HTRf detection is performed by the use of a commercially available kit from CisBio essentially according to the manufacturer's protocol. Briefly, 10 μl of the diluted sample is transferred to a white 384-well plate. 5 μl of d2 and 5 μl Eu3+-Cryptate labeled anti-PGE2 is added to each well containing samples by the use of a Multidrop. The plate is covered with a plastic self-adhesive film, centrifuged at 1200 rpm for 1 minute and subsequently stored at +4° C. over night.
After over night incubation the fluorescence is measured by the use of an appropriate microplate reader. The fluorescence of europium cryptate, and d2 are measured using the following excitation and emission wavelength, europium cryptate: λmax^ex=307 nm, λmax^em=620 nm and d2: λmax^ex=620 nm, λmax^em=665 nm), respectively. The extent of the specific FRET is measured as a ratio of the emission intensity at 665 nm vs. that at 620 nm. A standard curve using synthetic PGE2 is used to quantify the amount of PGE2 in unknown samples.

inhibition at 10 µM [%]	SMILES	inhibition at 1 µM [%]
97	O=C(N[C@H]1CC[C@H](C(F)(F)F)CC1)c1cc2nc(Nc3ccccc3C(F)(F)F)[nH]c2nc1OCC(F)F [Example 784, 2-(2-Trifluoromethyl-phenylamino)-5-(2,2-difluoro-ethoxy)-N-(trans-4-trifluoromethyl-cyclohexyl)-3H-imidazo[4,5-b]pyridine-6-carboxamide]	–
93	CCOc1nc2[nH]c(Nc3c(Cl)cncc3Cl)nc2cc1C(=O)Nc1ccc(Br)cc1 [Example 856, 2-(3,5-Dichloro-pyridin-4-ylamino)-5-ethoxy-N-(4-bromo-phenyl)-3H-imidazo[4,5-b]pyridine-6-carboxamide]	–
–	Cn1c(Nc2c(F)cccc2C(F)(F)F)nc2cc(C(=O)N[C@H]3CC[C@H](C(F)(F)F)CC3)c(OCC(F)F)nc21 [Example 780, 2-(2-Fluoro-6-trifluoromethyl-phenylamino)-5-(2,2-difluoro-ethoxy)-N-(trans-4-trifluoromethyl-cyclohexyl)-3-methyl-3H-imidazo[4,5-b]pyridine-6-carboxamide]	100
94	Cc1cc(C)c(Nc2nc3cc(C(=O)N[C@H]4CC[C@H](C(F)(F)F)CC4)c(OCC(F)F)nc3[nH]2)c(Cl)n1 [Example 793, 2-(2-Chloro-4,6-dimethyl-pyridin-3-ylamino)-5-(2,2-difluoro-ethoxy)-N-(trans-4-trifluoromethyl-cyclohexyl)-3H-imidazo[4,5-b]pyridine-6-carboxamide]	–
98	CCCCC[C@H](C)NC(=O)c1cnc2c(c1)nc(Nc1c(Cl)cccc1Cl)n2C [Example 497, (S)-2-(2,6-Dichlorophenylamino)-N-(hept-2-yl)-3-methyl-3H-imidazo[4,5-b]pyridine-6-carboxamide]	–
100	Cn1c(Nc2c(F)cccc2Cl)nc2cc(C(=O)Nc3ccc(Br)cc3)cnc21 [Example 480, N-(4-Bromophenyl)-2-(2-chloro-6-fluorophenylamino)-3-methyl-3H-imidazo[4,5-b]pyridine-6-carboxamide]	–
97	CC1(C)CCC(NC(=O)c2cnc3[nH]c(Nc4c(Cl)cccc4Cl)nc3c2)CC1 [Example 429, 2-(2,6-Dichlorophenylamino)-N-(4,4-dimethylcyclohexyl)-3H-imidazo[4,5-b]pyridine-6-carboxamide]	–
100	CC(C)n1c(Nc2c(Cl)cccc2Cl)nc2cc(C(=O)NC3CCC(C)(C)CC3)cnc21 [Example 505, 2-(2,6-Dichlorophenylamino)-N-(4,4-dimethylcyclohexyl)-3-isopropyl-3H-imidazo[4,5-b]pyridine-6-carboxamide]	–
100	COCCOc1nc2c(cc1C(=O)N[C@H]1CC[C@H](C(F)(F)F)CC1)nc(Nc1c(Cl)cc(F)cc1Cl)n2C [Example 869, 2-(2,6-Dichloro-4-fluoro-phenylamino)-5-(2-methoxy-ethoxy)-N-(trans-4-trifluoromethyl-cyclohexyl)-3-methyl-3H-imidazo[4,5-b]pyridine-6-carboxamide]	–
99	CCCCCC[C@H](C)NC(=O)c1cnc2c(c1)nc(Nc1c(Cl)cccc1Cl)n2C [Example 471, (S)-2-(2,6-Dichlorophenylamino)-3-methyl-N-(oct-2-yl)-3H-imidazo[4,5-b]pyridine-6-carboxamide]	–
98	Cn1c(Nc2c(Cl)cncc2Cl)nc2cc(C(=O)NCc3ccccc3C(F)(F)F)c(OCC(F)F)nc21 [Example 839, 2-(3,5-Dichloro-pyridin-4-ylamino)-5-(2,2-difluoro-ethoxy)-N-(2-trifluoromethyl-benzyl)-3-methyl-3H-imidazo[4,5-b]pyridine-6-carboxamide]	–
–	CC(=O)N(C)CCOc1nc2c(cc1C(=O)NCC(F)(F)C(F)(F)C(F)(F)C(F)(F)F)nc(Nc1c(Cl)cncc1Cl)n2C [Example 811, 2-(3,5-Dichloro-pyridin-4-ylamino)-5-(2-(acetyl-methyl-amino)-ethoxy)-N-(2,2,3,3,4,4,5,5,5-nonafluoro-pentyl)-3-methyl-3H-imidazo[4,5-b]pyridine-6-carboxamide]	94
100	Cn1c(Nc2c(Cl)cncc2Cl)nc2cc(C(=O)N[C@H]3CC[C@H](C(F)(F)F)CC3)c(OC3CCOC3)nc21 (stereo partly drawn) [Example 846, 2-(3,5-Dichloro-pyridin-4-ylamino)-5-(tetrahydrofuran-3-yl-oxy)-N-(trans-4-trifluoromethyl-cyclohexyl)-3-methyl-3H-imidazo[4,5-b]pyridine-6-carboxamide]	–
98	Cn1c(Nc2c(Cl)cccc2Cl)nc2cc(C(=O)NCc3ccccc3C(F)(F)F)cnc21 [Example 468, 2-(2,6-Dichlorophenylamino)-3-methyl-N-(2-trifluoromethyl-benzyl)-3H-imidazo[4,5-b]pyridine-6-carboxamide]	–
91	O=C(N[C@H]1CC[C@H](C(F)(F)F)CC1)c1cc2nc(Nc3c(Cl)cc(F)cc3Cl)[nH]c2nc1OCC(F)F [Example 823, 2-(2,6-Dichloro-4-fluoro-phenylamino)-5-(2,2-difluoro-ethoxy)-N-(trans-4-trifluoromethyl-cyclohexyl)-3H-imidazo[4,5-b]pyridine-6-carboxamide]	–
100	Cc1ccnc(Cl)c1Nc1nc2cc(C(=O)N[C@H]3CC[C@H](C(F)(F)F)CC3)c(OCC(F)F)nc2[nH]1 [Example 797, 2-(2-Chloro-4-methyl-pyridin-3-ylamino)-5-(2,2-difluoro-ethoxy)-N-(trans-4-trifluoromethyl-cyclohexyl)-3H-imidazo[4,5-b]pyridine-6-carboxamide]	–
74	CC(C)n1c(Nc2ccccc2Cl)nc2cc(C(=O)NC3CCC(C)(C)CC3)cnc21 [Example 541, 2-(2-Chlorophenylamino)-N-(4,4-dimethylcyclohexyl)-3-isopropyl-3H-imidazo[4,5-b]pyridine-6-carboxamide hydrochloride]	–
96	CC#CCn1c(Nc2c(Cl)cccc2Cl)nc2cc(C(=O)NC3CCCCC3)cnc21 [Example 523, 3-(But-2-ynyl)-N-cyclohexyl-2-(2,6-dichlorophenylamino)-3H-imidazo[4,5-b]pyridine-6-carboxamide]	–
96	O=C(N[C@H]1CC[C@H](C(F)(F)F)CC1)c1cc2nc(Nc3c(Cl)ccc(Cl)c3F)[nH]c2nc1OCC(F)F [Example 796, 2-(3,6-Dichloro-2-fluoro-phenylamino)-5-(2,2-difluoro-ethoxy)-N-(trans-4-trifluoromethyl-cyclohexyl)-3H-imidazo[4,5-b]pyridine-6-carboxamide]	–
100	Cn1c(Nc2c(Cl)cncc2Cl)nc2cc(C(=O)N[C@H]3CC[C@H](C(F)(F)F)CC3)c(OCCF)nc21 [Example 833, 2-(3,5-Dichloro-pyridin-4-ylamino)-5-(2-fluoro-ethoxy)-N-(trans-4-trifluoromethyl-cyclohexyl)-3-methyl-3H-imidazo[4,5-b]pyridine-6-carboxamide]	–
100	Cn1c(Nc2c(Cl)cncc2Cl)nc2cc(C(=O)Nc3ccc(Br)cc3)c(OC3CCOC3)nc21 (centres unmarked) [Example 848, 2-(3,5-Dichloro-pyridin-4-ylamino)-5-(tetrahydrofuran-3-yl-oxy)-N-(4-bromo-phenyl)-3-methyl-3H-imidazo[4,5-b]pyridine-6-carboxamide]	–
98	O=C(NCc1ncccc1C(F)(F)F)c1cc2nc(Nc3c(Cl)cc(F)cc3Cl)[nH]c2nc1OCC(F)(F)F [Example 830, 2-(2,6-Dichloro-4-fluoro-phenylamino)-5-(2,2,2-trifluoro-ethoxy)-N-((3-trifluoromethyl-pyridin-2-yl)-methyl)-3H-imidazo[4,5-b]pyridine-6-carboxamide]	–
100	Cn1c(Nc2c(Cl)cc(F)cc2Cl)nc2cc(C(=O)N[C@H]3CC[C@H](C(F)(F)F)CC3)c(OCCF)nc21 [Example 870, 2-(2,6-Dichloro-4-fluoro-phenylamino)-5-(2-fluoro-ethoxy)-N-(trans-4-trifluoromethyl-cyclohexyl)-3-methyl-3H-imidazo[4,5-b]pyridine-6-carboxamide]	–
99	O=C(Nc1cc(C(F)(F)F)ccn1)c1cc2nc(Nc3c(Cl)cncc3Cl)[nH]c2nc1OCC(F)F [Example 803, 2-(3,5-Dichloro-pyridin-4-ylamino)-5-(2,2-difluoro-ethoxy)-N-(4-trifluoromethyl-pyridin-2-yl)-3H-imidazo[4,5-b]pyridine-6-carboxamide]	–
92	CCOc1nc2[nH]c(Nc3c(Cl)cncc3Cl)nc2cc1C(=O)N[C@H]1CC[C@H](C(F)(F)F)CC1 [Example 842, 2-(3,5-Dichloro-pyridin-4-ylamino)-5-ethoxy-N-(trans-4-trifluoromethyl-cyclohexyl)-3H-imidazo[4,5-b]pyridine-6-carboxamide]	–
91	O=C(Nc1ccc(Cl)c(F)c1)c1cnc2[nH]c(Nc3c(Cl)cccc3Cl)nc2c1 [Example 154, 2-(2,6-Dichloro-phenylamino)-3H-imidazo[4,5-b]-pyridine-6-carboxylic acid (4-chloro-3-fluoro-phenyl)-amide]	–
